Assay [1] addresses Histone deacetylase 3/Nuclear receptor corepressor 2 (HDAC3/NCoR2) (Homo sapiens, UniProt O15379). In words: Inhibition of C-terminal His-tagged recombinant human HDAC3 (1 to 428 residues)/N-terminal GST-tagged recombinant human NCoR2 (395 to 489 residues) co-expressed in baculovirus infected Sf9 cells using fluorometric substrate measured after 60 mins by FRET assay.
In another assay the target is Histone deacetylase 5 (Homo sapiens, UniProt Q9UQL6). Briefly: Inhibition of recombinant human full length N-terminal GST-tagged HDAC5 expressed in baculovirus infected Sf9 insect cells using fluorogenic substrate measured after 60 mins by FRET assay.
For a further assay, the target named is T1, Histone deacetylase 11 (Homo sapiens, UniProt Q96DB2).
T1 sequence (Q96DB2 whole entry): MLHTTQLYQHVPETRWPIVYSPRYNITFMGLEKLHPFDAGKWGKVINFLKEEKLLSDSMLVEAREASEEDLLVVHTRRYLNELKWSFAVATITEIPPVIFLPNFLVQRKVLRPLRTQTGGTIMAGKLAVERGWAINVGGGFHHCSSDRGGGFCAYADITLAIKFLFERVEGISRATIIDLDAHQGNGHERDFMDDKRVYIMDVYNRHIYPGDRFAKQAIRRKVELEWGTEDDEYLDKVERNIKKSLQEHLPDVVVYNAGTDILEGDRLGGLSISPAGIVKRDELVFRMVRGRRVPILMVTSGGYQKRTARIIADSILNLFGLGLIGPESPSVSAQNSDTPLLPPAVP
In words: Inhibition of recombinant human full length HDAC11 expressed in baculovirus infected Sf9 cells measured after 60 mins by FRET assay.

The target in the next assay is T2, Histone deacetylase 7 (Homo sapiens, UniProt Q8WUI4).
T2 sequence (Q8WUI4 whole entry): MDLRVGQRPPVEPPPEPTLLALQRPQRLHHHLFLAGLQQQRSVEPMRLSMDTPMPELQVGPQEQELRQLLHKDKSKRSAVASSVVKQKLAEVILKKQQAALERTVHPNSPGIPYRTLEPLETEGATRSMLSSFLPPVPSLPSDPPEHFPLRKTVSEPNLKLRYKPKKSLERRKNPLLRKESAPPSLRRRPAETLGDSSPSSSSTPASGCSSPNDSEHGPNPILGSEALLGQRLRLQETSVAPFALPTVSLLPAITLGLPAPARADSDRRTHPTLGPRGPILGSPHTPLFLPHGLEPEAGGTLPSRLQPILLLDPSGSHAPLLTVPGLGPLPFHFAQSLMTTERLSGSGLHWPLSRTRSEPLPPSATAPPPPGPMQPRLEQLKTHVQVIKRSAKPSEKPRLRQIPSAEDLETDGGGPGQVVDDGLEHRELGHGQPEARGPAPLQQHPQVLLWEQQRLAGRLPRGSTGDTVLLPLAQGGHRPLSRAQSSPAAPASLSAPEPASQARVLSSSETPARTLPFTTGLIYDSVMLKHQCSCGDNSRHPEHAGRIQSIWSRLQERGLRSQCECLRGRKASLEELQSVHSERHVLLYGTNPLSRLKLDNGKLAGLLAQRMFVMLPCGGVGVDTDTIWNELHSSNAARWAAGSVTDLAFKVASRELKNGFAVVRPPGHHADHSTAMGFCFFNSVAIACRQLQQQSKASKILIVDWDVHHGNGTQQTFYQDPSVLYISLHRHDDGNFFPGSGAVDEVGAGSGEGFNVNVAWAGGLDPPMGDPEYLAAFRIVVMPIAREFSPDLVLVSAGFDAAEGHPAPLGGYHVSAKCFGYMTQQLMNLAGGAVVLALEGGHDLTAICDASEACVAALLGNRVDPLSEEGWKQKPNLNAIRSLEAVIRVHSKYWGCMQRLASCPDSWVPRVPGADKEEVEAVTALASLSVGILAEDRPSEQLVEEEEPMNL
In words: Inhibition of recombinant human N-terminal GST-tagged HDAC7 expressed in baculovirus infected Sf9 insect cells using fluorogenic substrate measured after 60 mins by FRET assay.

Sequence of Histone deacetylase 3/Nuclear receptor corepressor 2 (HDAC3/NCoR2) (O15379 whole entry, the tested form may be a part): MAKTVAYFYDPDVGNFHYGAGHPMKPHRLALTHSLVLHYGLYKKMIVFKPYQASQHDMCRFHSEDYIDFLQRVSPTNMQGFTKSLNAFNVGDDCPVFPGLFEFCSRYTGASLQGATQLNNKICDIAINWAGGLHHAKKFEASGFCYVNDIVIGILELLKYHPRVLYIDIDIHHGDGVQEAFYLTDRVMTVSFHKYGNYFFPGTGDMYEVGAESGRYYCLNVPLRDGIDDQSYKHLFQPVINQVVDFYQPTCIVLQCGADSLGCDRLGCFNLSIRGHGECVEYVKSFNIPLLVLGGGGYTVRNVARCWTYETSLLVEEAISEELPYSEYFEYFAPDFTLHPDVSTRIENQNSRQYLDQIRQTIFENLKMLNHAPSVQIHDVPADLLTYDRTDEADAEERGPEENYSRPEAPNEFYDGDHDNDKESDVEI
Sequence of Histone deacetylase 3/Nuclear receptor corepressor 2 (HDAC3/NCoR2) (Q9Y618 whole entry, further chain, the tested form may be a part): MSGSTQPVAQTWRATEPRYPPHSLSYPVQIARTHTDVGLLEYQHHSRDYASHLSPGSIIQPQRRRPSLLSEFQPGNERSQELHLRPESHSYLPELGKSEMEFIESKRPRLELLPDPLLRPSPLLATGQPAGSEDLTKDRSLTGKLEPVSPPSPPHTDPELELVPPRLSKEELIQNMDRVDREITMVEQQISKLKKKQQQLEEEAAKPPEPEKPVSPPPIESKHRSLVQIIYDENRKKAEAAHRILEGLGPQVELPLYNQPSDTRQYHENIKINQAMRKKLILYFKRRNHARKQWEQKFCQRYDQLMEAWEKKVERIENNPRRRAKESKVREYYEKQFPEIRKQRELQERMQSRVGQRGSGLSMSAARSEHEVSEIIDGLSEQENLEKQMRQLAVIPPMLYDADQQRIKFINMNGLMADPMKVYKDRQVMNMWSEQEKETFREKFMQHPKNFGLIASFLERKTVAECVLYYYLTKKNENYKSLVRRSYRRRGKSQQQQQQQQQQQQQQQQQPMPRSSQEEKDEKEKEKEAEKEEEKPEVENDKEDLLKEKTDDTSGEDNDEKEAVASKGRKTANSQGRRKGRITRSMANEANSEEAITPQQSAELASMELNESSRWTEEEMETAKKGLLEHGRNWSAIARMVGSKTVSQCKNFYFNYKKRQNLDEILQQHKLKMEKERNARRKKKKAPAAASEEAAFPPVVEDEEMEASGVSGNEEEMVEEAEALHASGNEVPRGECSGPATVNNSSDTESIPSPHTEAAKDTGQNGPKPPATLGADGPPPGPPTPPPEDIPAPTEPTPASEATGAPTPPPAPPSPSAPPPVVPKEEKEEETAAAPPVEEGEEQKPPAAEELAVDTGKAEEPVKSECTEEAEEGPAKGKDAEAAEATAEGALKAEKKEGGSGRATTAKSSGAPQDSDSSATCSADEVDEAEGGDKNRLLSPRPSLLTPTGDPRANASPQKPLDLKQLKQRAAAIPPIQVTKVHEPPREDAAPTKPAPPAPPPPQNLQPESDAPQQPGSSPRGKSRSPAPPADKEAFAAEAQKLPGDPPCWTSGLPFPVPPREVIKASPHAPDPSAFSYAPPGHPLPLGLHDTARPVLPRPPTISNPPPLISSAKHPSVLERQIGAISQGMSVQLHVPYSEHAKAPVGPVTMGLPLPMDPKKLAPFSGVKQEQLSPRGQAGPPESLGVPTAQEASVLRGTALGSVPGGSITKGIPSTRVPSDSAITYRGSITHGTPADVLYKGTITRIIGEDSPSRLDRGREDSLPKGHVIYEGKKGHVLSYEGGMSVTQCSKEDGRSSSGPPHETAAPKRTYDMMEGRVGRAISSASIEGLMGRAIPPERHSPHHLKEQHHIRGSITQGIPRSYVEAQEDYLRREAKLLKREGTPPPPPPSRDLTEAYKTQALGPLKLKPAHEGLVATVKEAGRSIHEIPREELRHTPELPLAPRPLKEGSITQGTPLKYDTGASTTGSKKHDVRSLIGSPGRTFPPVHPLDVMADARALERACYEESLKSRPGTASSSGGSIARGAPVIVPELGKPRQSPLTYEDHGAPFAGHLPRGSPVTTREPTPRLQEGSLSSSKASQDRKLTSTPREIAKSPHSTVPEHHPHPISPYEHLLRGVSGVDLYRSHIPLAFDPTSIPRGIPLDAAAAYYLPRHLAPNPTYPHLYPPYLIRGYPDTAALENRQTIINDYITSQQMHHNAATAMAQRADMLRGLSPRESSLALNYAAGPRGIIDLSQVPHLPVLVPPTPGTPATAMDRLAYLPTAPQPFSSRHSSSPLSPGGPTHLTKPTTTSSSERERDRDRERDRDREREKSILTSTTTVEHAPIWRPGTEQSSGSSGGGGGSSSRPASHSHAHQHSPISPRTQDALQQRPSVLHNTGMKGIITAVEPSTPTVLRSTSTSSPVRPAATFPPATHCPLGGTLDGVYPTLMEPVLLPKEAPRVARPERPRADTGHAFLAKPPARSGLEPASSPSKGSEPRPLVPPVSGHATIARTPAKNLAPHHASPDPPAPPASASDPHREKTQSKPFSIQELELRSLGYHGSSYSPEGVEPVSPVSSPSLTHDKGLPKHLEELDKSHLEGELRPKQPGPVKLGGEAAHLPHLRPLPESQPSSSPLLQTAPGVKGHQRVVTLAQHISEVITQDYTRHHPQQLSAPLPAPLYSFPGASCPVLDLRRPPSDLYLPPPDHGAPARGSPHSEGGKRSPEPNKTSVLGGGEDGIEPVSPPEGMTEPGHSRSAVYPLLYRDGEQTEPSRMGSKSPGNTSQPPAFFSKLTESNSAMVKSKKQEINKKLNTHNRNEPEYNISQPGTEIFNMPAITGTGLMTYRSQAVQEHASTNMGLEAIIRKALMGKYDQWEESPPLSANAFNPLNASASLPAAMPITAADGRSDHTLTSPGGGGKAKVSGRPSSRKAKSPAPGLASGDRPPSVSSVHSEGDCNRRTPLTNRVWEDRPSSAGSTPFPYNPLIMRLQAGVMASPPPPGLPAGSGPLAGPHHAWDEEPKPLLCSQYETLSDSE
Sequence of Histone deacetylase 5 (Q9UQL6 whole entry): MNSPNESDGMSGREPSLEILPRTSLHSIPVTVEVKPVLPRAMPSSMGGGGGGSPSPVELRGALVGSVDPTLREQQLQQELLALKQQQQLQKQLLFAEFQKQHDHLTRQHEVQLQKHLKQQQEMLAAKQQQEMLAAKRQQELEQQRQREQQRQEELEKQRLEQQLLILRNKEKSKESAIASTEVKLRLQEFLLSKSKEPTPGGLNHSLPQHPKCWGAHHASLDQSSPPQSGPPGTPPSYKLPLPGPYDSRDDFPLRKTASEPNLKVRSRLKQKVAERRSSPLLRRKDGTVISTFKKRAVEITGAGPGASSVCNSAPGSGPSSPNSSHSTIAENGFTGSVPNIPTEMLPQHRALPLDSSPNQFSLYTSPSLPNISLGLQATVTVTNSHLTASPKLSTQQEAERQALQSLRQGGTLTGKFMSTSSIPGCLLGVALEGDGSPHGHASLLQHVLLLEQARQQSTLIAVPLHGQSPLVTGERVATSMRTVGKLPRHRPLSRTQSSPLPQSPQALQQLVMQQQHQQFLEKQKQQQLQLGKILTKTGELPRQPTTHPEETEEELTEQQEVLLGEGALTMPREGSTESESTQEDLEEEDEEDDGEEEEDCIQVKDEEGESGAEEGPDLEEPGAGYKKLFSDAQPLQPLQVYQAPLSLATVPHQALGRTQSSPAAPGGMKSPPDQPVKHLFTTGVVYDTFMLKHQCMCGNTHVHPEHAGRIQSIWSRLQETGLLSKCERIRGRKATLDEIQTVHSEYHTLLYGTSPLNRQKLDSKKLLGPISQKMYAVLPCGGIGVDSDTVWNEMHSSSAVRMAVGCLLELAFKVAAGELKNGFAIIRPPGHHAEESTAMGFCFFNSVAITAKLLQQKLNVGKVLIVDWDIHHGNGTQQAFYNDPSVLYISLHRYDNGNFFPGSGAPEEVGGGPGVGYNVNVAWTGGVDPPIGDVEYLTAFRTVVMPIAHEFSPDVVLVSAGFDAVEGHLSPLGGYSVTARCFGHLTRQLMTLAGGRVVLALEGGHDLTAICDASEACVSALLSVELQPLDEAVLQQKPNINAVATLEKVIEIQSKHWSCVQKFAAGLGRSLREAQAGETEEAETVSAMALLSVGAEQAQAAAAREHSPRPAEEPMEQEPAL

For `C/C=C1\NC(=O)c2csc(n2)CNC(=O)C[C@@H](/C=C/CCSSCCCCCCC)OC(=O)[C@H](CCCCN)NC1=O`, the IC50 – broadly, the point on the concentration scale where inhibition reaches its midpoint – in assay [1] was 0.0103 µM; at Histone deacetylase 5 it was greater than 10 µM; at Histone deacetylase 11 it was greater than 10 µM; on Histone deacetylase 7, greater than 10 µM.
